Legend:
Puccinia recondita = experiment: In vivo preventive test on Puccinia recondita (brown rust on wheat); conditions: wheat plants sprayed 24 h before contamination, grading 12 days after contamination
Protocol: Plants, used as controls, are treated with the mixture of acetone/tween/DMSO/water not containing the active material. After 24 hours, the plants are contaminated by spraying the leaves with an aqueous suspension of Puccinia recondita spores (100 000 spores per ml). […] Grading (% of efficacy) is carried out 12 days after the contamination, in comparison with the control plants.

Uromyces appendiculatus = experiment: In vivo preventive test on Uromyces appendiculatus (bean rust); conditions: bean plants sprayed 24 h before contamination, grading 11 days after contamination
Protocol: Bean plants (“Saxa” variety), sown in starter cups on a 50/50 peat soil-pozzolana substrate and grown at 24° C., are treated at the 2-leaf stage (9 cm height) by spraying with the active ingredient prepared as described above. Plants, used as controls, are treated with the mixture of acetone/tween/DMSO/water not containing the active material. After 24 hours, the plants are contaminated by spraying the leaves with an aqueous suspension of Uromyces appendiculatus spores (150 000 spores per ml). […] Grading (% of efficacy) is carried out 11 days after the contamination, in comparison with the control plants.

[1] = Measurement of log P values by HPLC on reversed phase columns (EEC directive 79/831 Annex V.A8); type: physicochemical
Alternaria brassicae = experiment: In vivo preventive test on Alternaria brassicae (leaf spot on radish); conditions: dose 500 ppm; radish plants sprayed 24 h before contamination; grading 6 days after contamination vs control plants
Protocol: Radish plants (“Pernod Clair” variety), sown in starter cups on a 50/50 peat soil-pozzolana substrate and grown at 17° C., are treated at the cotyledon stage by spraying with the active ingredient prepared as described above. Plants, used as controls, are treated with the mixture of acetone/tween/DMSO/water not containing the active material. After 24 hours, the plants are contaminated by spraying the cotyledons with an aqueous suspension of Alternaria brassicae spores (50 000 spores per ml). The spores are collected from a 15-day-old culture. […] Grading (% of efficacy) is carried out 6 days after the contamination, in comparison with the control plants.

Pyrenophora teres = experiment: In vivo preventive test on Pyrenophora teres (net blotch on barley); conditions: barley plants sprayed 24 h before contamination, grading 14 days after contamination
Protocol: Barley plants (“Plaisant” variety), sown in starter cups on a 50/50 peat soil-pozzolana substrate and grown at 22° C., are treated at the 1-leaf stage (10 cm height) by spraying with the active ingredient prepared as described above. Plants, used as controls, are treated with the mixture of acetone/tween/DMSO/water not containing the active material. After 24 hours, the plants are contaminated by spraying the leaves with an aqueous suspension of Pyrenophora teres spores (12 000 spores per ml). The spores are collected from a 12-day-old culture. […] Grading (% of efficacy) is carried out 14 days after the contamination, in comparison with the control plants.

Septoria tritici = experiment: In vivo preventive test on Septoria tritici (leaf spot on wheat); conditions: dose 500 ppm; wheat plants sprayed 24 h before contamination; grading 24 days after contamination
Protocol: Wheat plants (“Scipion” variety), sown in starter cups on a 50/50 peat soil-pozzolana substrate and grown at 22° C., are treated at the 1-leaf stage (10 cm height) by spraying with the active ingredient prepared as described above. Plants, used as controls, are treated with the mixture of acetone/tween/DMSO/water not containing the active material. After 24 hours, the plants are contaminated by spraying the leaves with an aqueous suspension of cryopreserved Septoria tritici spores (500 000 spores per ml). […] Grading (% of efficacy) is carried out 24 days after the contamination, in comparison with the control plants.

Sphaerotheca fuliginea = experiment: In vivo preventive test on Sphaerotheca fuliginea (powdery mildew on cucurbits); conditions: gherkin plants sprayed 24 h before contamination, grading 12 days after contamination
Protocol: Gherkin plants (“Vert petit de Paris” variety), sown in starter cups on a 50/50 peat soil-pozzolana substrate and grown at 24° C., are treated at the Z11 cotyledon stage by spraying with the active ingredient prepared as described above. Plants, used as controls, are treated with the mixture of acetone/tween/DMSO/water not containing the active material. After 24 hours, the plants are contaminated by spraying the cotyledons with an aqueous suspension of Sphaerotheca fuliginea spores (100 000 spores per ml). The spores are collected from infected plants. The contaminated to gherkin plants are incubated at about 20° C. and at 70-80% relative humidity. Grading (% of efficacy) is carried out 12 days after the contamination, in comparison with the control plants.

SMILES | Eff. % (Puccinia recondita; dose 500 ppm) | Eff. % (Uromyces appendiculatus; dose 500 ppm) | logP ([1]; method marked [a]) | Eff. % (Alternaria brassicae) | Eff. % (Sphaerotheca fuliginea; dose 500 ppm) | other results
CCON=C1CC(C)c2c(NC(=O)c3c(C(F)F)nn(C)c3F)cccc21 (stereo not drawn) [Example 83] | 88% | 95% | 3.18[a] | 86% | – | Eff. % (Pyrenophora teres; dose 500 ppm): 83%
CCCON=C1CCc2c(NC(=O)c3c(C(F)F)nn(C)c3Cl)cccc21 [Example 23] | – | 82% | 3.76[a] | – | 70% | Eff. % (Septoria tritici): 90%
CCCON=C1CC(C)c2c(NC(=O)c3c(C(F)F)nn(C)c3F)cccc21 (stereo not drawn) [Example 91] | 94% | 100% | 3.67[a] | 86% | – | Eff. % (Pyrenophora teres; dose 500 ppm): 83%
CON=C1c2cccc(NC(=O)c3c(C(F)F)nn(C)c3F)c2CC1(C)C (mixture of isomers) [Example 61] | 86% | – | – | 75% | – | –
CC(C)C1Cc2c(NC(=S)c3c(C(F)F)nn(C)c3F)cccc2C1(C)C (stereo not drawn) [Example 95] | – | – | 4.76[a] | – | – | Eff. % (Puccinia recondita; dose 100 ppm): 98%; Eff. % (Uromyces appendiculatus; dose 100 ppm): 100%; Eff. % (Sphaerotheca fuliginea; dose 100 ppm): 100%; Eff. % (Pyrenophora teres; dose 100 ppm): 70%
Cn1nc(C(F)F)c(C(=O)Nc2cccc3c2CCC32CC2)c1Cl [Example 14] | 100% | 100% | 3.58[a] | 97% | – | –
CC1CC(C)(C)c2c(Cl)ccc(NC(=O)c3c(C(F)F)nn(C)c3Cl)c21 (stereo not drawn) [Example 12] | 93% | 96% | 4.6[a]; | 94% | – | logP ([1]; method marked [b]): 4.53[b]
CCCCON=C1CCc2c(NC(=O)c3c(C(F)F)nn(C)c3F)cccc21 [Example 24] | – | – | 3.96[a] | – | – | Eff. % (Septoria tritici): 80%
CCON=C1CCc2c(NC(=O)c3c(C(F)F)nn(C)c3Cl)cccc21 [Example 26] | 94% | 100% | 3.27[a] | 72% | – | –
CC1Cc2cccc(NC(=O)c3c(C(F)F)nn(C)c3F)c2C1 (stereo not drawn) [Example 7] | 98% | 100% | 3.31[a] | – | 78% | –
Cn1nc(C(F)F)c(C(=S)Nc2cccc3c2CCC3C(C)(C)C)c1Cl (stereo not drawn) [Example 74] | 100% | 100% | 4.64[a] | – | 98% | –
CC1CC(C)(C)c2c(F)ccc(NC(=O)c3c(C(F)F)nn(C)c3Cl)c21 (stereo not drawn) [Example 37] | – | 100% | 4.11[a] | 97% | 100% | Eff. % (Pyrenophora teres; dose 500 ppm): 75%
CC(C)C1Cc2c(NC(=S)c3c(C(F)F)nn(C)c3Cl)cccc2C1(C)C (stereo not drawn) [Example 92] | – | – | 4.9[a] | – | – | Eff. % (Puccinia recondita; dose 100 ppm): 94%; Eff. % (Uromyces appendiculatus; dose 100 ppm): 100%; Eff. % (Sphaerotheca fuliginea; dose 100 ppm): 100%; Eff. % (Pyrenophora teres; dose 100 ppm): 70%
CC1c2cccc(NC(=O)c3c(C(F)F)nn(C)c3Cl)c2CC1(C)C (stereo not drawn) [Example 77] | 100% | 100% | 4.19[a] | – | 98% | –
CC1CC2(CCCCC2)c2cccc(NC(=S)c3c(C(F)F)nn(C)c3F)c21 (stereo not drawn) [Example 104] | – | – | 4.88[a] | – | – | Eff. % (Puccinia recondita; dose 100 ppm): 100%; Eff. % (Uromyces appendiculatus; dose 100 ppm): 100%; Eff. % (Sphaerotheca fuliginea; dose 100 ppm): 100%
CC1CC(C)(C)c2cccc(NC(=O)c3c(C(F)F)nn(C)c3Br)c21 (stereo not drawn) [Example 42] | 100% | 100% | 4.03[a] | – | 100% | –

Reference: patent US9375005B2, “5-halogenopyrazole indanyl carboxamides” (BAYER CROPSCIENCE AG, priority 2012, dated 2016)
